Measured values as given in ChEMBL document CHEMBL3046358, “Multiple Pro-197 substitutions in the acetolactate synthase of rigid ryegrass (Lolium rigidum) and their impact on chlorsulfuron activity and plant growth” (Crop Prot, 2012).

Assays:
Lolium rigidum [1] = test: Herbicidal activity against Lolium rigidum accession A08 assessed as emergence rate applied at 1 times pre-emergence recommended rate relative to untreated control; assay type: functional
Lolium rigidum [2] = test: Herbicidal activity against Lolium rigidum accession A05 assessed as emergence rate applied at 1 times pre-emergence recommended rate applied in pots where terbufos had been incorporated into the soil relative to untreated control; assay type: functional
Acetolactate synthase [3] = target: T1, Acetolactate synthase (Lolium rigidum, UniProt A7XBP7); test: Inhibition of acetolactate synthase Ala-197/Ala-197 mutant in Lolium rigidum accession A19 leaves extracts by acetolactate production assay; settings: read-out: I50
Lolium rigidum [4] = test: Herbicidal activity against Lolium rigidum accession A04 assessed as fresh weight reduction applied at 1 times pre-emergence recommended rate applied in pots where terbufos had been incorporated into the soil relative to untreated control; assay type: functional; design: scale not given: the % may be the effect or the level left
Lolium rigidum [5] = test: Herbicidal activity against Lolium rigidum accession A02 assessed as fresh weight reduction applied at 1 times pre-emergence recommended rate relative to untreated control; assay type: functional; design: scale not given: the % may be the effect or the level left
Lolium rigidum [6] = test: Herbicidal activity against Lolium rigidum accession A14 assessed as emergence rate applied at 4 times pre-emergence recommended rate relative to untreated control; assay type: functional
Lolium rigidum [7] = test: Herbicidal activity against Lolium rigidum accession A15 assessed as emergence rate applied at 1 times pre-emergence recommended rate relative to untreated control; assay type: functional
Lolium rigidum [8] = test: Herbicidal activity against Lolium rigidum accession A04 assessed as fresh weight reduction applied at 1 times pre-emergence recommended rate relative to untreated control; assay type: functional; design: scale not given: the % may be the effect or the level left
Lolium rigidum [9] = test: Herbicidal activity against Lolium rigidum accession A05 assessed as emergence rate applied at 4 times pre-emergence recommended rate relative to untreated control; assay type: functional
Lolium rigidum [10] = test: Herbicidal activity against Lolium rigidum accession A10 assessed as emergence rate applied at 4 times pre-emergence recommended rate relative to untreated control; assay type: functional
Lolium rigidum [11] = test: Herbicidal activity against Lolium rigidum accession A09 assessed as fresh weight reduction applied at 1 times pre-emergence recommended rate applied in pots where terbufos had been incorporated into the soil relative to untreated control; assay type: functional; design: scale not given: the % may be the effect or the level left
Lolium rigidum [12] = test: Herbicidal activity against Lolium rigidum accession A06 assessed as fresh weight reduction applied at 4 times pre-emergence recommended rate relative to untreated control; assay type: functional; design: scale not given: the % may be the effect or the level left
Lolium rigidum [13] = test: Herbicidal activity against Lolium rigidum accession A02 assessed as emergence rate applied at 4 times pre-emergence recommended rate relative to untreated control; assay type: functional
Acetolactate synthase [14] = target: T1, Acetolactate synthase; test: Inhibition of acetolactate synthase Leu-197/Leu-197 mutant in Lolium rigidum accession A18 leaves extracts by acetolactate production assay; settings: read-out: I50
Lolium rigidum [15] = test: Herbicidal activity against Lolium rigidum accession A01 assessed as emergence rate applied at 1 times pre-emergence recommended rate relative to untreated control; assay type: functional
Lolium rigidum [16] = test: Herbicidal activity against Lolium rigidum accession A10 assessed as fresh weight reduction applied at 1 times pre-emergence recommended rate relative to untreated control; assay type: functional; design: scale not given: the % may be the effect or the level left
[17] = target: T2, Acetolactate synthase (Lolium rigidum) (UniProt A7XBP7); test: Resistance index, ratio of I50 for acetolactate synthase Pro-197/Arg-197 or Pro-197/Ser-197 or Pro/Val or Ala/Leu mutant in Lolium rigidum accession A17 leaves extracts to I50 for acetolactate synthase in Lolium rigidum accession A01 leaves extracts
T2 sequence (whole entry): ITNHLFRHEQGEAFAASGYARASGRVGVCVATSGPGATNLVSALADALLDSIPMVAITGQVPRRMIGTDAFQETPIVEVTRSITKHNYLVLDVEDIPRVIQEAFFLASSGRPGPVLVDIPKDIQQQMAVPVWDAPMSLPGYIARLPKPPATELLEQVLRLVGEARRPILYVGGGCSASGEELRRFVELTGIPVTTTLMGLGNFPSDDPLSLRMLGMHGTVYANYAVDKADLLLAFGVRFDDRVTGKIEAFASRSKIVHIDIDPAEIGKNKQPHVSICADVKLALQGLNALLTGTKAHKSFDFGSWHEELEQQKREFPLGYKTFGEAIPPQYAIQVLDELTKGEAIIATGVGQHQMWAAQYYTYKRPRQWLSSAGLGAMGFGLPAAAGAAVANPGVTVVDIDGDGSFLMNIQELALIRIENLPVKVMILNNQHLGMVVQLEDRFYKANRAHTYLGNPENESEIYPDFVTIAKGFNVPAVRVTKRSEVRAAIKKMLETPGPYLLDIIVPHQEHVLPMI

Acetolactate synthase [18] = target: T1, Acetolactate synthase; test: Inhibition of acetolactate synthase Ala-197/Ala-197 mutant in Lolium rigidum accession A05 leaves extracts by acetolactate production assay; settings: read-out: I50
Lolium rigidum [19] = test: Herbicidal activity against Lolium rigidum accession A02 assessed as emergence rate applied at 1 times pre-emergence recommended rate relative to untreated control; assay type: functional
Lolium rigidum [20] = test: Herbicidal activity against Lolium rigidum accession A13 assessed as fresh weight reduction applied at 4 times pre-emergence recommended rate relative to untreated control; assay type: functional; design: scale not given: the % may be the effect or the level left
Lolium rigidum [21] = test: Herbicidal activity against Lolium rigidum accession A08 assessed as emergence rate applied at 1 times pre-emergence recommended rate applied in pots where terbufos had been incorporated into the soil relative to untreated control; assay type: functional
[22] = target: T2, Acetolactate synthase (Lolium rigidum); test: Resistance index, ratio of I50 for acetolactate synthase Leu-197/Leu-197 mutant in Lolium rigidum accession A08 leaves extracts to I50 for acetolactate synthase in Lolium rigidum accession A01 leaves extracts
Lolium rigidum [23] = test: Herbicidal activity against Lolium rigidum accession A01 assessed as fresh weight reduction applied at 1 times pre-emergence recommended rate applied in pots where terbufos had been incorporated into the soil relative to untreated control; assay type: functional; design: scale not given: the % may be the effect or the level left
Lolium rigidum [24] = test: Herbicidal activity against Lolium rigidum accession A06 assessed as fresh weight reduction applied at 1 times pre-emergence recommended rate relative to untreated control; assay type: functional; design: scale not given: the % may be the effect or the level left
Lolium rigidum [25] = test: Herbicidal activity against Lolium rigidum accession A07 assessed as fresh weight reduction applied at 4 times pre-emergence recommended rate relative to untreated control; assay type: functional; design: scale not given: the % may be the effect or the level left
Lolium rigidum [26] = test: Herbicidal activity against Lolium rigidum accession A04 assessed as emergence rate applied at 1 times pre-emergence recommended rate relative to untreated control; assay type: functional
Acetolactate synthase [27] = target: T1, Acetolactate synthase; test: Inhibition of acetolactate synthase Pro-197/Pro-197 mutant in Lolium rigidum accession A10 leaves extracts by acetolactate production assay; settings: read-out: I50
Lolium rigidum [28] = test: Herbicidal activity against Lolium rigidum accession A08 assessed as fresh weight reduction applied at 4 times pre-emergence recommended rate relative to untreated control; assay type: functional; design: scale not given: the % may be the effect or the level left
Lolium rigidum [29] = test: Herbicidal activity against Lolium rigidum accession A04 assessed as fresh weight reduction applied at 4 times pre-emergence recommended rate relative to untreated control; assay type: functional; design: scale not given: the % may be the effect or the level left
[30] = target: T2, Acetolactate synthase (Lolium rigidum); test: Resistance index, ratio of I50 for acetolactate synthase Pro-197/Pro-197 mutant in Lolium rigidum accession A11 leaves extracts to I50 for acetolactate synthase in Lolium rigidum accession A01 leaves extracts
Lolium rigidum [31] = test: Herbicidal activity against Lolium rigidum accession A08 assessed as fresh weight reduction applied at 1 times pre-emergence recommended rate applied in pots where terbufos had been incorporated into the soil relative to untreated control; assay type: functional; design: scale not given: the % may be the effect or the level left
Acetolactate synthase [32] = target: Acetolactate synthase (Lolium rigidum, UniProt A7XBP7, P197L); test: Inhibition of acetolactate synthase Pro-197/Leu-197 mutant in Lolium rigidum accession A07 leaves extracts by acetolactate production assay; settings: read-out: I50
Lolium rigidum [33] = test: Herbicidal activity against Lolium rigidum accession A15 assessed as fresh weight reduction applied at 1 times pre-emergence recommended rate relative to untreated control; assay type: functional; design: scale not given: the % may be the effect or the level left
Lolium rigidum [34] = test: Herbicidal activity against Lolium rigidum accession A01 assessed as emergence rate applied at 1 times pre-emergence recommended rate applied in pots where terbufos had been incorporated into the soil relative to untreated control; assay type: functional

## COc1nc(C)nc(NC(=O)NS(=O)(=O)c2ccccc2Cl)n1 [CHLORSULFURON]
Lolium rigidum [1]
  Activity: 88%
Lolium rigidum [2]
  Activity: 95%
Acetolactate synthase [3]
  IC50: 18600 nM
Lolium rigidum [4]
  Activity: 96%
Lolium rigidum [5]
  Activity: 96%
Lolium rigidum [6]
  Activity: 1%
Lolium rigidum [7]
  Activity: 2%
Lolium rigidum [8]
  Activity: 96%
Lolium rigidum [9]
  Activity: 90%
Lolium rigidum [10]
  Activity: 0%
Lolium rigidum [11]
  Activity: 94%
Lolium rigidum [12]
  Activity: 11%
Lolium rigidum [13]
  Activity: 1%
Acetolactate synthase [14]
  IC50: 1620 nM
Lolium rigidum [15]
  Activity: 2%
Lolium rigidum [16]
  Activity: 76%
[17]
  Ratio: 29
Acetolactate synthase [18]
  IC50: 4890 nM
Lolium rigidum [19]
  Activity: 2%
Lolium rigidum [20]
  Activity: 99%
Lolium rigidum [21]
  Activity: 91%
[22]
  Ratio: 564
Lolium rigidum [23]
  Activity: 99%
Lolium rigidum [24]
  Activity: 0%
Lolium rigidum [25]
  Activity: 49%
Lolium rigidum [26]
  Activity: 2%
Acetolactate synthase [27]
  IC50: 40 nM
Lolium rigidum [28]
  Activity: 46%
Lolium rigidum [29]
  Activity: 95%
[30]
  Ratio: 1
Lolium rigidum [31]
  Activity: 5%
Acetolactate synthase [32]
  IC50: 1820 nM
Lolium rigidum [33]
  Activity: 94%
Lolium rigidum [34]
  Activity: 1%
